According to patent publication US10478421B1, “Sortilin binding compounds, formulations, and uses thereof” (University of Florida, priority 2016, dated 2019):
“And” between values parts separate entries of the source, which are not always exact repeats. Equal values may be shown once.

How the values were obtained:
McA cells = assay: Insulin signaling (pY-IRβ, p-AKT S473) by immunoblotting in McA cells; assay type: cell-based, rat; settings: 10 μM, 18 h, then 250 nM insulin
Experimental: (FIG. 4A) McA cell lines with variable sortilin KD were incubated with vehicle (black bars) or with 10 μM cpd984 (gray bars) for 18 h (3-100 mm plates per condition). […] VLDL was isolated from media of each plate and VLDL-B100 was quantified by immuno slot blotting. Results presented are averages of the 3 plates ±S.D. (FIG. 4B) McA cells were incubated for 18 h in 1% BSA/DMEM±10 μM cpd984. McA cells were then stimulated with a time course of 250 nM insulin (0, 5, 10 and 15 min). IRβ and AKT, pY-IRβ, and p-AKT (S473) were evaluated by immunoblotting using protein and phosphospecific antibodies.
McA cell lysates were prepared and denatured proteins were separated by SDS-PAGE as described previously. Following electrophoretic transfer to PVDF membranes and blocking non-specific binding, membranes were incubated with primary antibodies overnight at 4° C. in blocking buffer. Antibody binding was detected by incubation for 1-2 h at room temperature with species specific secondary HRP-linked antibodies and developed using Amersham™ Prime reagent (GE Healthcare). Insulin signaling to IRβ and AKT were evaluated using nitrocellulose membranes (Bio-Rad) and phosphospecific (pY, p-AKT(Ser473) and mass specific antibodies. Chemiluminescence was measured using the ChemiDocXRS+system (Bio-Rad) and band intensities quantified using Image Lab 3.0.1 software (Bio-Rad).

hsortilin [1] = molecular target: T1, hsortilin (Homo sapiens, UniProt Q99523); assay: Liposome floatation assay of hsortilin binding to PIP3 liposomes; settings: increasing concentrations of cpd984
T1 construct: Human sortilin (hsortilin) (Ser78-Asn755) with C-terminal 6-His tag; purchased R&D Systems, Inc. (Minneapolis, Minn.)
T1 sequence (Q99523 78-755): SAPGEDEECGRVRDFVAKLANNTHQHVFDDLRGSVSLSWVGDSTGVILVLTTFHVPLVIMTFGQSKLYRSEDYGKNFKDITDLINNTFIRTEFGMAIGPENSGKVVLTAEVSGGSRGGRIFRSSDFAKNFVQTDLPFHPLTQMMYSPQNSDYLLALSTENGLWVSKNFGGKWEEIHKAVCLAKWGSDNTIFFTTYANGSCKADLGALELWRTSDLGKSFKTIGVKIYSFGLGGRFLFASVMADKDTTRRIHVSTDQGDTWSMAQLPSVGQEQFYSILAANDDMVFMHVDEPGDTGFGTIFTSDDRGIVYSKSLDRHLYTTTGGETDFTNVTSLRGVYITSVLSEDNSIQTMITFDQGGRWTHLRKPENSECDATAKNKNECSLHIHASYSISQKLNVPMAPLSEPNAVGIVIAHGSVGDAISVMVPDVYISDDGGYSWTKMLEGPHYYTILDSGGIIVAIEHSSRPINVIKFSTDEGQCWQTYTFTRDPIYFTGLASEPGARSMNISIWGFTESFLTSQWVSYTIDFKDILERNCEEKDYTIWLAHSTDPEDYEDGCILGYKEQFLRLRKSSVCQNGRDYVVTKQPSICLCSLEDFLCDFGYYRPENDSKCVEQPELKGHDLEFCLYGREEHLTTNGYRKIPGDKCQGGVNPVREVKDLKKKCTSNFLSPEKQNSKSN
Experimental: Unilamellar liposomes containing specific lipid compositions were produced using lipids dissolved in chloroform that were mixed according to mole percentages of 2.6 μmoles total phospholipid. Lipids were dried and desiccated overnight followed by incubation with PBS (2.6 ml) for 1 h. Lipids were resuspended by vortexing and disrupted by sonication for 30 min. To measure binding, a liposome floatation assay was used by adding concentrations 50 nM or 100 nM hsortilin to liposomes (150 μl) containing 5% PIP3, 20% PE and 75% PC; 10% PIP3, 20% PE, 70% PC; or 0% PIP3, 80% PC, and 20% PE as described. Samples containing 50 nM or 100 nM protein and liposomes in the presence and absence of cpd984 were incubated for 10 min at 30° C. and 630 μl of 1.65 M sucrose/PBS was added. Samples were overlaid with 630 μl of 0.75 M sucrose/PBS, and PBS to the top of the tube and centrifuged (200,000×g, 90 min, 4° C.), and floated liposomes recovered from the 0.75 M sucrose layer. Liposomes at the interface of the top and second fraction were recovered and diluted in 2 ml of PBS and re-isolated by centrifugation (16,000×g, 20 min, 4° C.). 50 μl PBS and 20 μl 5×SDS sample buffer was added to the final liposome pellet. Bound proteins were resolved by SDS-PAGE and detected by western immunoblotting following transfer to PVDF membranes.

hsortilin [2] = molecular target: T1, hsortilin; assay: Surface plasmon resonance of NT and cpd984 on immobilized hsortilin (Ni-NTA chip, Example 1); assay type: binding
Experimental: Surface plasmon resonance measurements were performed on a Biacore T200 instrument equipped with Ni-NTA sensor chips with ˜6800 response units (RU) for hsortilin covalently immobilized to the surface. HBS-DMSO running buffer (10 mM Hepes pH 7.4, 150 mM NaCl, 1% DMSO) was used at a flow rate of 30 μl/min and injections performed with times for association of 90 s, and dissociation of 300 s, followed by injection of buffer to regenerate the hsortilin surface. Binding was expressed in relative RU; the difference in response between the immobilized protein flow cell and the corresponding control flow cell.

LDLR = assay: Cellular LDLR by immunoblot in McA cells; assay type: cell-based, rat; settings: 10 μM, 18 h, 1% BSA/DMEM
Experimental: McA cells were incubated in 1% BSA/DMEM with DMSO, 541 (10 μM) or 984 (10 μM) for 18 h. Cellular proteins were extracted and analyzed by IB for LDLR (LS-C146979, 1:2000) (FIG. 5A) or PCSK9 (Ab125251, 1:2000) (FIG. 5B) using HRP-linked secondary antibody and ECL detection. Loading controls included β-ACTIN (Rockland ph600-401-886) and GAPDH (cb1001mAb (6C5). Band intensities were measured using ChemiDocXRS+ system and evaluated using ImageLab 5.1 software (BioRad). Results are average of triplicates ±S.D. PCSK9 is a known ligand for sortilin where sortilin acts as a chaperone for PCSK9 secretion.

## CN1CCC[C@H]1C(=O)Nc1cccc(NC(=O)CCc2ccccc2)c1 [cpd984, (2S)-1-methyl-N-{3-[(3-phenylpropanoyl)-amino]phenyl} pyrrolidine-2-carboxamide]
McA cells
  effect on insulin sensitivity (insulin-dependent pY of IRβ, pAKT): did not alter insulin sensitivity
Hsortilin [1]
  effect on sortilin binding to PIP3 liposomes: increased sortilin binding to PIP3 liposomes
Hsortilin [2]; 100 nM NT injected with 500 μM cpd984
  SPR binding response: 64.1 RU and 64.7 RU
Hsortilin [2]; 100 nM NT with 500 μM cpd984, average
  averaged RU of NT co-injected with 984: 64.4 RU
Hsortilin [2]; 100 nM NT, 500 μM cpd984
  increase in binding to hsortilin for co-injected NT over the combination of NT and cpd984 alone: 14.5 RU
Hsortilin [2]; 500 μM cpd984 alone
  SPR binding response: 45.1 RU and 44.8 RU
Hsortilin [2]; sum of averaged responses injected alone
  RU of 500 μM cpd984 and 100 nM NT (sum of separate injections): 50.0 RU
LDLR
  effect on LDL receptors: increase in LDL receptors
